Values of other authors as cited in patent US8193376B2, “Artemisinin derivatives with natural amino acids, peptides, and amino sugars for the treatment of infection and topical condition in mammals” (Bioderm Research, priority 2007, dated 2012).

Experiments:
[1] = system: malaria; conditions: relative to artemisinin
[2] = system: nucleic acid synthesis; conditions: relative to artemisinin

| SMILES | antimalarial potency, times that of artemisinin [1] [times] | ability to inhibit nucleic acid synthesis, times the activity of artemisinin [2] [times] | antimalarial potency higher than that of artemisinin [1] [%] |
| --- | --- | --- | --- |
| CO[C@H]1O[C@@H]2O[C@@]3(C)CC[C@H]4[C@H](C)CC[C@@H]([C@H]1C)[C@@]24OO3 [Artemether] | 6 | 100 | – |
| C[C@H]1[C@H](OC(=O)CCC(=O)O)O[C@@H]2O[C@@]3(C)CC[C@H]4[C@H](C)CC[C@@H]1[C@@]24OO3 [Artesunate] | 5.2 | 100 | – |
| C[C@H]1[C@@H](O)O[C@@H]2O[C@@]3(C)CC[C@H]4[C@H](C)CC[C@@H]1[C@@]24OO3 [Dihydroartemisinin] | – | 100 | 60 |
| CCO[C@H]1O[C@@H]2O[C@@]3(C)CC[C@H]4[C@H](C)CC[C@@H]([C@H]1C)[C@@]24OO3 [arteether, Arteether] | – | 100 | – |
| CCCOC(=O)OC1O[C@@H]2O[C@@]3(C)CC[C@H]4[C@H](C)CC[C@@H]([C@H]1C)[C@@]24OO3 (some centres unmarked) [propylcarbonate dihydroartemisinin] | – | 100 | – |
